Assay results from article PMC6259748, “Selection of Peptides Targeting Helix 31 of Bacterial 16S Ribosomal RNA by Screening M13 Phage-Display Libraries” (Molecules, 2011).

Key:
wild-type modified h31 = experiment: surface plasmon resonance (SPR), modified h31; assay type: binding, E. coli
Protocol: Modified h31 was labeled with biotin in order to immobilize the RNA onto a surface and determine the kinetics of peptide binding by surface plasmon resonance (SPR). […] In order to enhance the signal-to-noise ratio, a GFP-protein-fused peptide, TYLPWPA-GFP, was generated and used as the analyte.
Biotinylated, modified h31 RNA was immobilized onto a streptavidin-coated CM5 chip and differing concentrations of TYLPWPA-GFP (10–100 µM) were injected as the analyte. A range of salt concentrations, detergent levels, pH conditions, and flow rates were tested, since these factors affect the peptide-RNA complex formation (data not shown). The apparent dissociation constants were determined under the following optimized conditions: 10 mM Tris·HCl, 150 mM NaCl, 10 mM MgCl2, 1 mM dithiothreitol (DTT), 0.005% (v/v) P20 at pH 7.5 as the running buffer at a flow rate of 50 μL/min.
All immobilization and subsequent binding studies were performed using a BIAcore 2000 instrument set at a temperature of 25 °C. Standard dextran surface BIAcore sensorchips (Sensor chip CM5) were purchased from BIAcore (GE Healthcare, Piscataway, NJ). Standard desorb and sanitize routines were performed according to the BIAcore guidelines before docking a new CM5 sensor chip. All buffers were filtered through sterile 0.2 μm nylon membranes (Millipore™) under vacuum. Before derivatizing the flow cells with streptavidin, the CM5 sensor chip was pre-conditioned using three successive 10 μL injections of chip-preparation solution (10 mM NaOH, 500 mM NaCl) at 100 μL/min, followed by a normalization routine using BIAnormalizing solution (40% glycerol). Streptavidin derivatization was performed according to standard procedures.
Prior to immobilization, the solution of biotinylated RNA in HBS-EP buffer (10 mM HEPES, 3 mM EDTA, 150 mM NaCl, 0.005% P20 at pH 7.4) was renatured by heating to 90 °C for 2 min, cooling gradually to room temperature, and placing on ice. Flow cells were functionalized by injecting 30 μL of RNA at a time using the MANUAL INJECT command at a flow rate of 10 μL/min, until the desired immobilization level was reached. One of the flow cells was used to immobilize RNA, while the adjacent cell remained unmodified to serve as a blank-control for matrix effects. Levels of RNA captured were calculated by subtracting […] for each flow cell. After RNA immobilization, both flow cells were blocked with 100 μL of 1 mg/mL biotin at 5 μL/min.
For the SPR experiments, the peptides were cloned into plasmid pBacEmGH (Cunningham Lab, to be described elsewhere) under transcriptional regulation of a PBAD promoter. Upon induction with L-arabinose, the resulting construct produces a fusion protein in which the peptide is fused to the N-terminus of EmGFP containing a C-terminus 6 x His affinity tag (PEP-EmGFP-6 x His).
Peptide samples were prepared by serial dilutions from stock solutions. Dilutions were made in running buffer (10 mM Tris·HCl, 150 mM NaCl, 10 mM MgCl2, 1 mM DTT, 0.005% (v/v) P20 at pH 7.5). All procedures for binding were automated, as optimized methods using repetitive cycles of sample injection and regeneration. Typically, running buffer was injected for ~30 min prior to experiment to establish a stable baseline value. Peptide solutions (200 μL) were injected at a kinetic flow rate of 50 μL/min, using the KINJECT command. All peptide samples were injected from 7 mm plastic vials (BIAcore) that were capped with pierceable plastic-crimp-caps to minimize carry-over and sample evaporation. Samples were injected in order of increasing concentration. The surface was regenerated using 150 μL of 500 mM NaCl. The data were fit to a 1:1 binding Langmuir model using BIAevaluation 3.0 software. […]

[1] = system: translation of green fluorescent protein (GFP); experiment: coupled in vitro transcription-translation inhibition assay (GFP); assay type: biochemical, E. coli; settings: for order of translation inhibition by peptides (from high to low) / inhibitory effect on protein translation: peptides at 1 mM, GFP fluorescence; for inhibition of in vitro protein synthesis: cell-free translation, summary statement; for GFP fluorescence lower compared to DIRTQRE: peptide 1 mM, at 120 min, ex 487 nm; for inhibitory effect on protein translation: in words
Protocol: A cell-free translation assay was used to test the potential inhibitory effects of the peptides on protein synthesis. Different concentrations of peptides were added to E. coli S30 extracts and the extent of inhibition was monitored by the measurement of green fluorescent protein (GFP) translation.
The inhibitory effects of selected peptides (DIRTQRE, CVRPFAL, FVRPFAL, TLWDLIP and TYLPWPA) on cellular processes were determined by in vitro coupled transcription-translation inhibition assay. The PURExpress™ in vitro protein synthesis kit #E6800S from New England Biolabs (Beverly, MA) was used for this purpose. A DNA template for GFP (pRSETEmGFP plasmid, Invitrogen) was employed at a concentration of 10 µg/mL in a 15 µL of reaction volume. Different concentrations of peptides were added, ranging from 300 µM to 2 mM. The DNA template was added only after mixing of the peptides or streptomycin so that they could bind to their target region first. For the control, streptomycin was added at a final concentration of 300 µM. The reaction was incubated in 384-well, Costar, clear-well, black plates and in situ incubated at 37 °C in a Gemini XPS microplate spectrofluorometer (Molecular Devices, Sunnyvale, CA) and the amount of GFP produced was monitored at different time intervals from 0 min to 2 h by fluorescence (excitation at 487 nm, emission at 509 nm).

[2] = system: GFP-S11-labeled 30S subunits; experiment: ribosome-binding assay on Tentagel beads; set-up: species or system E. coli; settings: for order of binding preference by the 30S subunits (from high to low): fluorescence microscopy, pH 7.3; for fluorescence on beads after 30S binding: peptide on Tentagel beads, 30S subunits overnight at 4 °C, 20 mM HEPES, pH 7.3, 10 mM MgCl2, 100 mM KCl, duplicate
Protocol: The purpose of this experiment was to determine whether the selected peptides have affinity for bacterial ribosomes. The binding affinities of various peptides could also be compared by this method. Small ribosomal subunits, 30S, labeled with GFP on ribosomal protein S11 were added to peptides covalently attached to Tentagel beads (Figure 4A). […] The peptides were chemically synthesized on Tentagel beads with their N-termini exposed. Increasing concentrations of GFP-tagged 30S subunits were added to the Tentagel-bound peptides and unbound 30S subunits were removed by washing. Relative fluorescence intensity of the 30S subunits bound to the peptides on bead was determined by imaging on a fluorescence microscope, with the assumption that the level of fluorescence on the beads was proportional to the affinity of the ribosome for the peptide sequence.
Four peptides isolated from the phage-display experiment, […], DIRTQRE, TLWDLIP, and […], were synthesized on Tentagel (Rapp Polymer, Tübingen, Germany) beads using standard Fmoc synthesis. The beads were stored in DMF until use. The beads were then washed three times with 450 μl of water, and three times with 450 μL of the binding buffer B (binding buffer: 20 mM HEPES, pH 7.3, 10 mM MgCl2, 100 mM KCl), using 0.45 μm MWCO Nanosep (Pall Corporation, Ann Arbor, MI). The beads were then centrifuged at 6,000 rpm for 1–2 min.
Fluorescently labeled 30S subunits were isolated by sucrose gradient centrifugation in 5 mM Mg^2+ [82]. For control experiments, His(6)-EmGFP-S11 was purified using IMAC resin (Bio-Rad, Hercules, CA) and the fluorescence was assayed using beads carrying peptides with ribosomes, beads carrying peptides with His(6)-EmGFP-S11 (no ribosomes) and beads only with ribosomes (no peptides).
The fluorescent ribosomes were incubated in binding buffer B (20 mM HEPES, pH 7.3, 10 mM MgCl2, 100 mM KCl) at 37 °C for 30 min. Next, 25 pmoles of ribosome solution was added to each peptide, and the mixture was incubated overnight at 4 °C with agitation. Unbound ribosomes were removed by two 450 μL washes with binding buffer B and centrifugation at 6,000 rpm for 1–2 min. The beads were resuspended in 40 μL of binding buffer B for microscope screening and kept on ice until scanning. The beads (20 μL) were spread on microscope slides for scanning (Olympus 1X71 microscope, TH4 100 Olympus lamp, Olympus UCMAD 3 camera, 20× magnification). An average of two pictures were taken per slide, eliminating beads presenting uneven swelling and cracks.

[3] = system: TLWDLIP-GFP (synthetic fusion (expressed by L-arabinose induction)); experiment: SPR; settings: m2G966; m5C967 (E. coli numbering); 5' phosphorothioate; SPR: 10 mM Tris-HCl pH 7.5, 150 mM NaCl, 10 mM MgCl2, 1 mM DTT, 0.005% P20, 50 uL/min, streptavidin-coated CM5 chip; CD: 10 mM sodium phosphate pH 7, 100 mM …
[4] = system: CVRPFAL-GFP (synthetic fusion (expressed by L-arabinose induction)); experiment: SPR; settings: m2G966; m5C967 (E. coli numbering); 5' phosphorothioate; SPR: 10 mM Tris-HCl pH 7.5, 150 mM NaCl, 10 mM MgCl2, 1 mM DTT, 0.005% P20, 50 uL/min, streptavidin-coated CM5 chip; CD: 10 mM sodium phosphate pH 7, 100 mM …
GFP (EmGFP) = experiment: SPR; settings: m2G966; m5C967 (E. coli numbering); 5' phosphorothioate; SPR: 10 mM Tris-HCl pH 7.5, 150 mM NaCl, 10 mM MgCl2, 1 mM DTT, 0.005% P20, 50 uL/min, streptavidin-coated CM5 chip; CD: 10 mM sodium phosphate pH 7, 100 mM …
[5] = system: TYLPWPA-GFP (synthetic fusion (expressed by L-arabinose induction)); experiment: SPR; settings: m2G966; m5C967 (E. coli numbering); 5' phosphorothioate; SPR: 10 mM Tris-HCl pH 7.5, 150 mM NaCl, 10 mM MgCl2, 1 mM DTT, 0.005% P20, 50 uL/min, streptavidin-coated CM5 chip; CD: 10 mM sodium phosphate pH 7, 100 mM …
TYLPWPA peptide [6] = target: T1, TYLPWPA peptide (synthetic (phage display)); experiment: fluorescence titration (quenching); 10 mM HEPES, 50 mM NaCl, 1 mM Na2EDTA, pH 7.5, 25 C; apparent, 7% signal change; SPR: 10 mM Tris-HCl pH 7.5, 150 mM NaCl, 10 mM MgCl2, 1 mM DTT, 0.005% P20, 50 uL/min, streptavidin-coated CM5 chip; CD: 10 mM sodium phosphate pH 7, 100 mM NaCl, 0.1 mM Na2EDTA, 25 C; fluorescence: 10 mM HEPES pH 7.5, 50 mM NaCl, 1 mM Na2EDTA, 25 C; settings: label: 5'-fluorescein; hairpin
T1 chain: TYLPWPA

TYLPWPA peptide [7] = target: T1, TYLPWPA peptide; experiment: CD titration; 100 mM NaCl, 10 mM sodium phosphate, 0.1 mM Na2EDTA, pH 7.0, 25 C; apparent, poor fit; SPR: 10 mM Tris-HCl pH 7.5, 150 mM NaCl, 10 mM MgCl2, 1 mM DTT, 0.005% P20, 50 uL/min, streptavidin-coated CM5 chip; CD: 10 mM sodium phosphate pH 7, 100 mM NaCl, 0.1 mM Na2EDTA, 25 C; fluorescence: 10 mM HEPES pH 7.5, 50 mM NaCl, 1 mM Na2EDTA, 25 C; settings: hairpin

Molecule: TYLPWPA-GFP
- ka (association rate constant) (wild-type modified h31; 1:1 Langmuir, 10 mM Tris·HCl, 150 mM NaCl, 10 mM MgCl2, 1 mM DTT, 0.005% P20, pH 7.5, 50 μL/min, 25 °C, CM5 chip): (1.50 ± 0.02) × 10^2 M^-1s^-1
- kd (dissociation rate constant) (wild-type modified h31; 1:1 Langmuir, pH 7.5, 150 mM NaCl, 10 mM MgCl2, 50 μL/min, 25 °C, CM5 chip): (4.2 ± 0.04) × 10^-3 s^-1
- KD (kd/ka) (wild-type modified h31; SPR kinetic analysis, 1:1 Langmuir, pH 7.5, 150 mM NaCl, 10 mM MgCl2, 50 μL/min, 25 °C, TYLPWPA-GFP 10–100 µM): 28 ± 1 µM

Molecule: DIRTQRE [heptapeptide selected against wild-type modified h31]
- order of translation inhibition by peptides (from high to low) ([1]; 37 °C): CVRPFAL ≈ FVRPFAL > TLWDLIP > TYLPWPA > DIRTQRE
- order of binding preference by the 30S subunits (from high to low) ([2]; Tentagel beads): TYLPWPA > CVRPFAL ≈ TLWDLIP > DIRTQRE
- relative binding affinity to 30S subunits ([2]; Tentagel beads, quantified fluorescence, of the four peptides tested): lowest relative affinity
- fluorescence on beads after 30S binding [2]: Fluorescence is observed

Molecule: [H]/N=C(/N)N[C@H]1[C@H](O)[C@@H](O)[C@H](O[C@@H]2O[C@@H](C)[C@](O)(C=O)[C@H]2O[C@@H]2O[C@@H](CO)[C@H](O)[C@@H](O)[C@@H]2NC)[C@@H](N/C(N)=N\[H])[C@@H]1O [Streptomycin, streptomycin, reference compound]
- inhibition of GFP translation ([1]; 300 µM, positive control, 37 °C, fluorescence ex 487 nm, em 509 nm): completely inhibited GFP translation

Molecule: CVRPFAL [heptapeptide from selection against modified h31 with unmodified h31 counter selection]
- inhibition of in vitro protein synthesis [1]: inhibit in vitro protein synthesis
- GFP fluorescence lower compared to DIRTQRE ([1]; em 509 nm): four
- order of translation inhibition by peptides (from high to low) ([1]; 37 °C): CVRPFAL ≈ FVRPFAL > TLWDLIP > TYLPWPA > DIRTQRE
- inhibitory effect on protein translation [1]: best inhibitory effects
- binding affinity to modified h31 (wild-type modified h31; in words, comparable to known antibiotics targeting 16S rRNA): high nM
- order of binding preference by the 30S subunits (from high to low) ([2]; Tentagel beads): TYLPWPA > CVRPFAL ≈ TLWDLIP > DIRTQRE
- fluorescence on beads after 30S binding [2]: Fluorescence is observed

Molecule: FVRPFAL [heptapeptide selected against wild-type modified h31]
- inhibition of in vitro protein synthesis [1]: promising results in the in vitro translation assay
- GFP fluorescence lower compared to DIRTQRE ([1]; em 509 nm): four
- order of translation inhibition by peptides (from high to low) ([1]; 37 °C): CVRPFAL ≈ FVRPFAL > TLWDLIP > TYLPWPA > DIRTQRE
- inhibitory effect on protein translation [1]: best inhibitory effects

Molecule: GUUCGAUGCAACGCGAAC [modified h31 (wild-type), biotinylated]
- Kd [3]: 0.33 µM
- Kd [4]: 0.23 µM
- Kd (GFP (EmGFP)): 20 µM
- Kd [5]: 28 µM

B1: F-h31 (modified h31, fluorescein) (structured_RNA)
RNA: GUUCGAUGCAACGCGAAC
modifications: m2G966; m5C967 (E. coli numbering); 5' phosphorothioate
- Kd (TYLPWPA peptide [6]): 27 ± 4 µM

B2: modified h31 (wild-type), unlabeled (structured_RNA)
RNA: GUUCGAUGCAACGCGAAC
modifications: m2G966; m5C967 (E. coli numbering)
- Kd (TYLPWPA peptide [7]): 28 ± 10 µM
